Results: patent US7947305B2, “Fat-soluble drug composition” (Riken Vitamin Co., Ltd., priority 2005, dated 2011)

assay: HLB value of emulsifiers; type: physicochemical; details: emulsifier raw material
Procedure: The HLB value (Hydrophile Lipophile Balance) refers to a value showing hydrophilicity of a surfactant. This is an index representing the balance of the lipophilicity and hydrophilicity of the object compound, which is determined as a relative value to an HLB value for a hypothetical compound, generally an ethylene oxide adduct-type nonionic surfactant having an infinite long hydrophilic group attached to a lipophilic group and having the maximum hydrophilicity, which is set to 20, and to an HLB value for a lipophilic compound having no hydrophilic group, which is set to 0.

Compound	HLB
diglycerol monooleate	7.4
CCCCCCCC/C=C\CCCCCCCC(=O)OCC(O)CO (stereo not drawn) [Glycerol oleate, glycerol monooleate]	4.3
decaglycerol laurate [Decaglycerol monolaurate]	15.0
